The values that follow come from US20120295838A1, “Selective poly-substituted glycine antibiotics and related compositions” (priority 2008, published 2012).

Square brackets hold non-standard residues; d marks the D form. Peptide text beside a SMILES is read from it. Nspe = C[C@H](NCC(=O)O)c1ccccc1; Nlys = NCCCCNCC(=O)O

One may read the CC50 as the concentration at which the toxic effect on the cells reaches its halfway point. A high value points to lower toxicity to the cells.

One series has as its system human erythrocytes. The series can be described thus: Hemolysis assay. It is filed as cell-based. How it is done:
(§1) Hemolysis assays. Erythrocytes were isolated from freshly drawn, heparanized human blood and resuspended to 20 vol % in PBS (pH 7.4). In a 96-well microtiter plate, 100 μL erythrocyte suspension was added to 100 uL peptoid solution in PBS (prepared by 1:2 serial dilutions), or 100 μL PBS in the case of negative controls. 100% hemolysis wells contained 100 μL, blood cell suspension with 100 μL 0.2 vol % Triton X-100. The plate was incubated for 1 h at 37° C., then each well was diluted with 1504 PBS. The plate was then centrifuged at 1200 g for 15 min, 100 μL of the supernatant from each well transferred to a fresh microtiter plate, and A350 measured.
Hemolysis assays. Erythrocytes were isolated from freshly drawn, heparanized human blood and resuspended in PBS (pH 7.4) to make a 20% volume suspension. Peptoid solutions were prepared by serial dilution (2:1) in a 96-well microtiter plate. For test wells, 100 μLL of erythrocyte suspension was added to 100 μL of peptoid solution in PBS; PBS without peptoid was used as the negative control and 0.2 vol % Triton X-100 as the positive control that indicates 100% hemolysis. After 1 hour incubation at 37° C., each well was diluted with 150 μL PBS. Plates were then centrifuged at 1,200×g for 15 minutes to pellet the cells. 30 μL of the supernatant from each well were transferred to the corresponding well of a second 96-well plate that contains 70 μL PBS.
as §1, with “assays for Compositions.” for “assays.”, “100” for “100 uL”, “μL” for “μL,”, “150 μL” for “1504”, “1200g” for “1200 g”

Another series is described as follows: MTS assay, NIH 3T3 cells. It is filed as cell-based, mouse. The settings on record: mouse, NIH 3T3 fibroblast cells. How it is done: The potencies of all compounds were determined against representative Gram-negative (E. coli ATCC 35218) and Gram-positive (B. subtilis ATCC 6633) biosafety level 1 (BSL1) organisms. In addition to hemolytic activity, the conventional measure of toxicity to mammalian cells, the effect of each ampetoid on NIH 3T3 mouse fibroblast cells was determined using the MTS tetrazolium salt-based colorimetric assay. While hemolysis measures the degree to which erythrocytes are lysed, the MTS assay indirectly quantifies the extent to which cellular metabolic activity is inhibited.
MTS assays. NIH/3T3 cells (ATCC Corporation) cultured at 37° C. and 5% CO2 in complete Dulbecco's modified eagle's media (CDMEM) supplemented with 1% sodium pyruvate, 1% penicillin-streptomycin, 1.5 g/L NaHCO3, and 10% fetal bovine serum. Cells were seeded at a density of 5,000 cells per well for NIH/3T3 cells in 96-well plates (100 μl total volume). A peptoid solution plate (100 μL total volume per well) was prepared by serial dilution of aqueous peptoid stock solution in Hank's balanced salt solution (HBSS) media. The day-old cell monolayers were washed with HBSS and media was replaced with 100 μL HBSS. The contents of the peptoid solution plate were transferred onto corresponding wells of the cell monolayer plate, and 40 μL MTS reagent (Promega, Inc.) was added to each well. After incubating for 3 hours at 37° C., absorbance at 490 nm was determined. […] The average of six replicates is reported.

The test system of a further series is E. coli ATCC 35218. The class given is cell-based. The settings on record: ATCC 35218. How it is done:
(§2) Whereas the preceding generation of molecules was designed to elucidate structure function relationships of specific molecular parameters (chirality, length, hydrophobicity, etc.), another generation compounds were designed explicitly to explore effects on selectivity. Antimicrobial activity of these compounds was tested against bacterial strains E. coli (ATTC 35218) and B. subtilis (ATTC 6633) in cation-adjusted MHB using the microdilution protocols previously described. The sequences, antimicrobial activities, hemolytic activities, and metabolic inhibitory concentrations against NIH 3T3 mouse fibroblast cells are summarized in Table 3 and the rationale of their design is described below.
(§3) Screening antibacterial assays. MICs were determined in 96-well microtiter plates in accordance with CLSI M7-A6 protocols. Peptoid solutions with 50 μL total volume were prepared using 2:1 serial dilutions. 50 i—tL of bacteria inoculum (1×10^6 CFU/mL) prepared in cation-adjusted Mueller-Hinton broth (CAMHB) was added to test wells. Control wells contained 100 μL MHB (no growth) or 50 μL inoculums with 50 μL MHB with no peptoid. […] Reported values were reproducible over three experiments, each containing two parallel trials.
(§4) Antibacterial Assays for Compositions. MICs were determined according to CLSI M7-A6 protocols in a 96-well microtiter plate. In test wells, 50 μL bacterial inoculum (1×10^6 CFU/ml) in cation-adjusted Mueller-Hinton broth (CAMHB) was added to 50 μL peptoid solution in CAMHB (prepared by 1:2 serial dilutions). Positive controls contained 50 μL inoculum and 50 μL CAMHB without peptoid. […] MIC values reported were reproducible between three independent experimental replicates, each consisting of two parallel trials.

The subject of a further series is B. subtilis ATCC 6633. The class given is cell-based. The settings on record: ATCC 6633. How it is done:
as §2, §3, §4

As for `C[C@H](NCC(=O)N(CCCCN)CC(=O)N(CC(=O)N(CC(=O)N(CCCCN)CC(=O)N(CC(=O)N(CC(=O)N(CCCCN)CC(=O)N(CC(=O)N(CC(=O)N(CCCCN)CC(=O)N(CC(N)=O)[C@@H](C)c1ccccc1)[C@@H](C)c1ccccc1)[C@@H](C)c1ccccc1)[C@@H](C)c1ccccc1)[C@@H](C)c1ccccc1)[C@@H](C)c1ccccc1)[C@@H](C)c1ccccc1)c1ccccc1` [1B, H-(Nspe-Nlys-Nspe)4-NH2] (H-[Nspe][Nlys][Nspe][Nspe][Nlys][Nspe][Nspe][Nlys][Nspe][Nspe][Nlys][Nspe]-NH2), the HD10 in the series on human erythrocytes is 55 µM. The midpoint of cytotoxicity in the series “MTS assay, NIH 3T3 cells”, the CC50 at 3 h, lay at 4.9 µM. For the same compound, in the series with E. coli ATCC 35218, the “E. coli MIC” value is 6.3 µM.

Turning to `C[C@@H](c1ccc2ccccc2c1)N(CC(N)=O)C(=O)CN(C(=O)CN(CCCCN)C(=O)CN(C(=O)CN(C(=O)CN(CCCCN)C(=O)CN(C(=O)CN(C(=O)CN(CCCCN)C(=O)CN(C(=O)CN(C(=O)CNCCCCN)[C@@H](C)c1ccccc1)[C@@H](C)c1ccccc1)[C@@H](C)c1ccccc1)[C@@H](C)c1ccc2ccccc2c1)[C@@H](C)c1ccccc1)[C@@H](C)c1ccccc1)[C@@H](C)c1ccccc1` [1-Nsna6,12, H-(Nlys-Nspe-Nspe-Nlys-Nspe-Nsna)2-NH2], in the series with human erythrocytes, the HD10 turned out to be 7 µM and the HD50 was determined as 27 µM. In the series on human erythrocytes (red cells of human, 1 h), the “HD10 (10% hemolytic dose)” value amounted to 4 µM and the “HD50 (50% hemolytic dose)” value turned out to be 22 µM. For the same compound, in the series with B. subtilis ATCC 6633, the “MIC for B. subtilis ATCC 6633” value was 0.78 to 1.6 µM. The “MIC for E. coli ATCC 35218” value with E. coli ATCC 35218 lay in the range of 25 to 50 µM.

Compound `C[C@@H](c1ccccc1)N(CC(N)=O)C(=O)CN(C(=O)CN(CCCCN)C(=O)[C@@H]1CCCN1C(=O)CN(C(=O)CN(CCCCN)C(=O)CN(C(=O)CN(C(=O)CN(CCCCN)C(=O)[C@@H]1CCCN1C(=O)CN(C(=O)CNCCCCN)[C@@H](C)c1ccccc1)[C@@H](C)c1ccccc1)[C@@H](C)c1ccccc1)[C@@H](C)c1ccccc1)[C@@H](C)c1ccccc1` [1-Pro3,9, H-(Nlys-Nspe-L-Pro-Nlys-Nspe-Nspe)2-NH2] (H-[Nlys][Nspe]P[Nlys][Nspe][Nspe][Nlys][Nspe]P[Nlys][Nspe][Nspe]-NH2) gave a CC50 at 3 h in “MTS assay, NIH 3T3 cells” of 71 µM. Further, in the series with E. coli ATCC 35218, the “E. coli MIC” value is 50 µM.

Regarding `C[C@H](NCC(=O)N(CCCCN)CC(=O)N(CC(=O)N(CCCCN)CC(=O)N(CCCCN)CC(=O)N(CC(=O)N(CC(=O)N(CCCCN)CC(=O)N(CC(=O)N(CCCCN)CC(=O)N(CCCCN)CC(=O)N(CC(=O)N(CC(=O)N(CCCCN)CC(=O)N(CC(N)=O)[C@@H](C)c1ccccc1)[C@@H](C)c1ccccc1)[C@@H](C)c1ccccc1)[C@@H](C)c1ccccc1)[C@@H](C)c1ccccc1)[C@@H](C)c1ccccc1)[C@@H](C)c1ccccc1)c1ccccc1` [1B15 mer-Nlys4,10, H-(Nspe-Nlys-Nspe-Nlys-Nlys-Nspe)2-Nspe-Nlys-Nspe-NH2] (H-[Nspe][Nlys][Nspe][Nlys][Nlys][Nspe][Nspe][Nlys][Nspe][Nlys][Nlys][Nspe][Nspe][Nlys][Nspe]-NH2), the CC50 at 3 h in the series “MTS assay, NIH 3T3 cells” was 16 µM. The “E. coli MIC” value in the series on E. coli ATCC 35218 stood at 50 µM.

Regarding `C[C@@H](c1ccccc1)N(CC(=O)N(CCCCN)CC(=O)N(CC(=O)N(CC(=O)N(CCCCN)CC(=O)N(CC(=O)N(CC(=O)N(CCCCN)CC(=O)N(CC(=O)N(CC(=O)N(CCCCN)CC(N)=O)[C@@H](C)c1ccccc1)[C@@H](C)c1ccccc1)[C@@H](C)c1ccccc1)[C@@H](C)c1ccccc1)[C@@H](C)c1ccccc1)[C@@H](C)c1ccccc1)C(=O)CN(C(=O)CNCCCCN)[C@@H](C)c1ccccc1` [113 mer, H-(Nlys-Nspe-Nspe)4-Nlys-NH2] (H-[Nlys][Nspe][Nspe][Nlys][Nspe][Nspe][Nlys][Nspe][Nspe][Nlys][Nspe][Nspe][Nlys]-NH2), in “MTS assay, NIH 3T3 cells”, the CC50 at 3 h is 5.6 µM. Moreover, the “E. coli MIC” value in the series on E. coli ATCC 35218 turned out to be 3.1 µM.

In the series with human erythrocytes, `C[C@H](NCC(=O)N(CC(=O)N(CCCCN)CC(=O)N(CC(=O)N(CCCCN)CC(=O)N(CC(=O)N(CCCCN)CC(=O)N(CC(=O)N(CC(=O)N(CC(=O)N(CC(=O)N(CCCCN)CC(N)=O)[C@@H](C)c1ccccc1)[C@@H](C)c1ccccc1)[C@@H](C)c1ccccc1)[C@@H](C)c1ccccc1)[C@@H](C)c1ccccc1)[C@@H](C)c1ccccc1)[C@@H](C)c1ccccc1)c1ccccc1` [1scr, H-(Nspe)2-(Nlys-Nspe)3-(Nspe)3-Nlys-NH2] (H-[Nspe][Nspe][Nlys][Nspe][Nlys][Nspe][Nlys][Nspe][Nspe][Nspe][Nspe][Nlys]-NH2) gave an HD10 of 64 µM. In “MTS assay, NIH 3T3 cells”, this compound gave a CC50 at 3 h of 8.5 µM. Besides, the “E. coli MIC” value in the series with E. coli ATCC 35218 was determined as 6.3 µM.

In the series with human erythrocytes, `C[C@H](NCC(=O)N(CC(=O)N(CCCCN)CC(=O)N(CC(=O)N(CC(=O)N(CCCCN)CC(=O)N(CC(=O)N(CC(=O)N(CCCCN)CC(=O)N(CC(=O)N(CC(=O)N(CCCCN)CC(N)=O)[C@@H](C)c1ccccc1)[C@@H](C)c1ccccc1)[C@@H](C)c1ccccc1)[C@@H](C)c1ccccc1)[C@@H](C)c1ccccc1)[C@@H](C)c1ccccc1)[C@@H](C)c1ccccc1)c1ccccc1` [1C, H-(Nspe-Nspe-Nlys)4-NH2] (H-[Nspe][Nspe][Nlys][Nspe][Nspe][Nlys][Nspe][Nspe][Nlys][Nspe][Nspe][Nlys]-NH2) gave an HD10 of 25 µM. The CC50 at 3 h in the series “MTS assay, NIH 3T3 cells” was 5.6 µM. The “E. coli MIC” value with E. coli ATCC 35218 came out at 6.3 µM.

On to `C[C@@H](c1ccccc1)N(CC(=O)N(CCCCN)CC(=O)N(CC(=O)N(CC(=O)N(CCCCN)CC(=O)N(CC(=O)N(CC(=O)N(CCCCN)CC(N)=O)[C@@H](C)c1ccccc1)[C@@H](C)c1ccccc1)[C@@H](C)c1ccccc1)[C@@H](C)c1ccccc1)C(=O)CN(C(=O)CNCCCCN)[C@@H](C)c1ccccc1` [110 mer, H-(Nlys-Nspe-Nspe)3-Nlys-NH2] (H-[Nlys][Nspe][Nspe][Nlys][Nspe][Nspe][Nlys][Nspe][Nspe][Nlys]-NH2), for which the HD10 in the series on human erythrocytes is above 200 µM. The CC50 at 3 h in “MTS assay, NIH 3T3 cells” was 54 µM. Further, the “E. coli MIC” value with E. coli ATCC 35218 amounted to 12.5 µM.

`C[C@@H](c1ccccc1)N(CC(N)=O)C(=O)CN(CCCCN)C(=O)CN(C(=O)CN(C(=O)CN(CCCCN)C(=O)CN(C(=O)CN(C(=O)CN(CCCCN)C(=O)CN(C(=O)CN(C(=O)CNCCCCN)[C@@H](C)c1ccccc1)[C@@H](C)c1ccccc1)[C@@H](C)c1ccccc1)[C@@H](C)c1ccccc1)[C@@H](C)c1ccccc1)[C@@H](C)c1ccccc1` [111 mer, H-(Nlys-Nspe-Nspe)3-Nlys-Nspe-NH2] (H-[Nlys][Nspe][Nspe][Nlys][Nspe][Nspe][Nlys][Nspe][Nspe][Nlys][Nspe]-NH2) returned a CC50 at 3 h in the series “MTS assay, NIH 3T3 cells” of 11 µM. Besides, in the series with E. coli ATCC 35218, the “E. coli MIC” value came to 6.3 µM.
